Results from patent US20080044436A1, “Method for Screening and Compositions for Treating Cancers” (priority 2004, published 2008).

T1: PR (Homo sapiens, UniProt P06401)
T1 construct: made in house; host or cells: PR-B: rabbit reticulocyte lysate / T7 RNA polymerase in vitro translation (Promega)
T1 sequence (P06401 1-933): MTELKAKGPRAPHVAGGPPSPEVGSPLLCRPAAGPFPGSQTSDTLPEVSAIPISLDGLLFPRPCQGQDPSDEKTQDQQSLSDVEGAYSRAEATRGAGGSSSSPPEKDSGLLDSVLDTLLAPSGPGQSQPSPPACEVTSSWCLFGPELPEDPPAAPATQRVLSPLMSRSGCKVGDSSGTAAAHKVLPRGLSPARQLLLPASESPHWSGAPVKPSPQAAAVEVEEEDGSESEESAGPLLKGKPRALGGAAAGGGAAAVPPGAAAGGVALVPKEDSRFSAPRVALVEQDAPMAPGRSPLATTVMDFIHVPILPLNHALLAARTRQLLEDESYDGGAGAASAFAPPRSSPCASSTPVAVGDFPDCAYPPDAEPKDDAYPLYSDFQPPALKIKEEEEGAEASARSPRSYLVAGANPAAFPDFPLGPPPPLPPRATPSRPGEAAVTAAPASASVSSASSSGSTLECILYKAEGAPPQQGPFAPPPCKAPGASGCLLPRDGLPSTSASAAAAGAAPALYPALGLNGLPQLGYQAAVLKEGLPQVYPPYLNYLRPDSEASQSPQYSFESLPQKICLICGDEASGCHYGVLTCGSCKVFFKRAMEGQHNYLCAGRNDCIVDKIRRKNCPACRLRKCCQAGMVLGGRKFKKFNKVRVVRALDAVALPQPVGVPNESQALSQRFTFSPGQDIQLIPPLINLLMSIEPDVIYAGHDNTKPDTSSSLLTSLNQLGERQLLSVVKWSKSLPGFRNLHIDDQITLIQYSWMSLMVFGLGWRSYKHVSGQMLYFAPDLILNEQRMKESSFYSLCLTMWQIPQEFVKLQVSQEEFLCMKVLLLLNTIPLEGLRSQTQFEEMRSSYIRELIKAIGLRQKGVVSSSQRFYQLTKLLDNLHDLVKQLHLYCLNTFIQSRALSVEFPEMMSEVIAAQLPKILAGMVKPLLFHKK
T1 sequence (Q96PN7 1-1200 partner): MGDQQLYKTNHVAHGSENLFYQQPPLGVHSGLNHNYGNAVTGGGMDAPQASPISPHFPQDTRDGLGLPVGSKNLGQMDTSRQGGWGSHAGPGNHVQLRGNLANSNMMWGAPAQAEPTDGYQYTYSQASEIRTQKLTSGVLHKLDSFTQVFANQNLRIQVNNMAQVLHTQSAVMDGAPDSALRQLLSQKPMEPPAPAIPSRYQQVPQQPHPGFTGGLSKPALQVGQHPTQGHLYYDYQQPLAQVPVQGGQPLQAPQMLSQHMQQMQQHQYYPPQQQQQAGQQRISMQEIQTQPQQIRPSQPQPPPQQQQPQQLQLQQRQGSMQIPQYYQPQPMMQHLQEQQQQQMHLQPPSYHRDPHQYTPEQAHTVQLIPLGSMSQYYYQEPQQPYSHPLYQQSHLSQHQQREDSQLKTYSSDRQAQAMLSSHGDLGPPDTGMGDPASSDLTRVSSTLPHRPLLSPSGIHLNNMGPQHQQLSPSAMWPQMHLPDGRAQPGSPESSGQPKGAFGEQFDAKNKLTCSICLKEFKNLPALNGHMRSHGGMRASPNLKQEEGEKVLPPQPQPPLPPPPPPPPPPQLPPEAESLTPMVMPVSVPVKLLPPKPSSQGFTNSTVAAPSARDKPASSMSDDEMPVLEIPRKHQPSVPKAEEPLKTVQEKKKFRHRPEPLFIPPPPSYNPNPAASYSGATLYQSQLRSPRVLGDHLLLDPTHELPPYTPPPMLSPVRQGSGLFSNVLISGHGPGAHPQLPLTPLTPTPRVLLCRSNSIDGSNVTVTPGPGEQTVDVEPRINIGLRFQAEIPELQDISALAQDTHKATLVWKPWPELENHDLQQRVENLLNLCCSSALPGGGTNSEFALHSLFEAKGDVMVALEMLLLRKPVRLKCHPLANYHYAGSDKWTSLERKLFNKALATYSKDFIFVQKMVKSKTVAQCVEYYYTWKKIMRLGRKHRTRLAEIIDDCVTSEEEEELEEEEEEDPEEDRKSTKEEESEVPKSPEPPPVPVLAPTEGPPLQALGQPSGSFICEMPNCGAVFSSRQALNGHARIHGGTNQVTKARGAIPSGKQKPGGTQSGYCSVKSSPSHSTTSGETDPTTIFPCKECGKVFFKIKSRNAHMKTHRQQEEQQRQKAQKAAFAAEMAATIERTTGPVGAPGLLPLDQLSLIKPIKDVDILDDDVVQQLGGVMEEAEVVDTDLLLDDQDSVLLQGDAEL

B1: TReP-132: Transcriptional Regulating Protein of 132 kDa, polypeptide comprising SEQ ID NO: 2; here expressed in cells from vectors (protein)
chain: T1 sequence (Q96PN7 1-1200 partner)

Biological target: T1, PR
Assay: GST pull-down, TReP-132 and PR
Format: binding
Experimental: FIG. 14D left: GST-TReP-132 immobilized on glutathione-Sepharose was incubated with ^35-[S]-methionine-labelled PR, in the absence or with increasing concentrations of progesterone (0-10 μM). Specific interactions were analyzed by comparison with the results obtained by incubating GST with ^35-[S]-PR, in the presence of 100 μM progesterone (GST).
FIG. 14D right: GST-TReP-132 wt, GST-TReP-132 ml (mutated at the LRQLL site) and GST-TReP-132 m2 (mutated at the LEMLL site) were analyzed for interaction with ^35-[S]-PR as described earlier, in the presence of 10 μM progesterone. Input PR: 1/10th of the radiolabelled PR level used in the experiments.
In order to evaluate the interaction of TReP-132, Sp1, ER and PR, the wt and mutant GST-TReP-132 fusion proteins were expressed, then immobilized on glutathione-Sepharose as described (Frangioni and Neel, 1993; Monte et al., 1998). The ^35S-[Sp1], ^35S-[ER] and ^35S-[PR-B] proteins were synthesized in vitro using a rabbit reticulocyte lysate and T7 RNA polymerase system as directed by the manufacturer (Promega Corporation, Madison, Wis.). Proteins which bound, then detached from the Sepharose after being heated to boiling in SDS buffer were then separated on a 10% SDS-PAGE gel. The gels were stained with Coomassie blue, dried and autoradiographed.

Molecule | TReP-132/PR interaction in presence of progesterone (GST-TReP-132 and 35S-PR, progesterone 0-10 μM) | interaction with PR (GST pull-down with 35S-PR)
CC(=O)[C@H]1CC[C@H]2[C@@H]3CCC4=CC(=O)CC[C@]4(C)[C@H]3CC[C@]12C [progesterone, reference compound] | increased in a dose-dependent manner | –
B1 | – | interact
